The record followed here is US20160376240A1, “6 Phenyl or 6 Pyridin 3 YL Indazole Derivatives and Methods of Use” (ABBVIE INC., priority 2014, published 2016).

As usually defined, the IC50 is the concentration at which inhibition is half-maximal. The low end stands for greater potency in that assay, the high end for weaker potency in that assay.

The target of this test is T1, TrkA (Homo sapiens, UniProt P04629).
T1 construct: purchased Invitrogen PV3144
As to the kind of experiment: TrkA kinase inhibition, HTRF assay. The class given is biochemical. As to conditions: LCK peptide substrate 125 nM, TrkA 2-10 nM pre-incubated with ATP 200 μM. As to the method: TrkA, TrkB, and TrkC enzymes were obtained from Invitrogen (as catalog numbers PV3144, PV3616, and PV3617, respectively). The ability of a compound to inhibit the enzymatic activity of the TrkA, TrkB, and TrkC enzymes was determined in separate assays. Enzyme activity was measured in an HTRF® (homogeneous time resolved fluorescence) assay, which detects enzymatic phosphorylation of a biotinylated synthetic peptide substrate (an LCK peptide analog, biotin-ahx-GAEEEIYAAFFA, from Genemed Synthesis). Phosphorylation is assessed by HTRF® in the presence of an anti-phosphotyrosine antibody conjugated to Eu^3+ cryptate (Cisbio) as donor fluorophore, and streptavidin conjugated to allophycocyanin (ProZyme) as acceptor fluorophore. The HTRF® signal was detected at two different wavelengths (620 nm and 665 nm) which were used to calculate the fluorescence ratio.
Each enzyme was titrated to a concentration optimized to ensure accurate measurement of the initial reaction rate. To allow the Trk enzymes to undergo activation and auto-phosphorylation, a 20 minute pre-incubation with ATP was carried out (at twice the final targeted enzyme and ATP concentration) prior to addition of test compound and the peptide substrate.
TrkA in vitro assays were performed by pre-incubating TrkA (2-10 nM) with ATP (200 μM) for 20 minutes at ambient temperature in 50 mM HEPES pH 7.4, 10 mM MgCl2, 2 mM MnCl2, 100 μM Na3VO4, 1 mM dithiothreitol, 0.01% BSA (bovine serum albumin). Then, to the activated Trk enzyme mixture was added the test compound in 2% dimethyl sulfoxide. After 10 minutes, the peptide substrate (125 nM) was added. After 1 hour, enzyme reactions were terminated by addition of equal reaction volumes of detection/stop reagent (containing 0.2 μg/mL anti-phosphotyrosine monoclonal antibody labeled with europium from Cisbio (catalog# PT66-K), and 4 μg/mL PhycoLink® Streptavidin-Allophycocyanin conjugate from ProZyme (catalog# PJ25S) in 60 mM EDTA in 40 mM HEPES pH 7.4, 480 mM KF, 0.01% Tween® 20 and 0.1% BSA bovine serum albumin) Reaction plates were stored at 4° C. overnight before reading the fluorescence ratio signal on a PerkinElmer EnVision™ fluorescence detector. Individual reaction wells were stopped at time points to obtain reaction rates. The test inhibitor compounds were assayed in duplicate, at half-log serial dilutions over a range of concentrations (e.g. starting at 50 μM or 5 μM as the high compound concentration). The percent Trk enzyme inhibition was calculated from the initial rates of the inhibited reactions relative to the uninhibited control. IC50 values were calculated by fitting the inhibition percent to the concentration of inhibitor [I] in the assay in equation 1 below, to solve for the IC50.
Inhibition %=100[I]/([I]+[IC50]) equation 1
(In general: TR-FRET usually uses a lanthanide donor and a delayed reading to cut background.)

T1 sequence (P04629 33-796): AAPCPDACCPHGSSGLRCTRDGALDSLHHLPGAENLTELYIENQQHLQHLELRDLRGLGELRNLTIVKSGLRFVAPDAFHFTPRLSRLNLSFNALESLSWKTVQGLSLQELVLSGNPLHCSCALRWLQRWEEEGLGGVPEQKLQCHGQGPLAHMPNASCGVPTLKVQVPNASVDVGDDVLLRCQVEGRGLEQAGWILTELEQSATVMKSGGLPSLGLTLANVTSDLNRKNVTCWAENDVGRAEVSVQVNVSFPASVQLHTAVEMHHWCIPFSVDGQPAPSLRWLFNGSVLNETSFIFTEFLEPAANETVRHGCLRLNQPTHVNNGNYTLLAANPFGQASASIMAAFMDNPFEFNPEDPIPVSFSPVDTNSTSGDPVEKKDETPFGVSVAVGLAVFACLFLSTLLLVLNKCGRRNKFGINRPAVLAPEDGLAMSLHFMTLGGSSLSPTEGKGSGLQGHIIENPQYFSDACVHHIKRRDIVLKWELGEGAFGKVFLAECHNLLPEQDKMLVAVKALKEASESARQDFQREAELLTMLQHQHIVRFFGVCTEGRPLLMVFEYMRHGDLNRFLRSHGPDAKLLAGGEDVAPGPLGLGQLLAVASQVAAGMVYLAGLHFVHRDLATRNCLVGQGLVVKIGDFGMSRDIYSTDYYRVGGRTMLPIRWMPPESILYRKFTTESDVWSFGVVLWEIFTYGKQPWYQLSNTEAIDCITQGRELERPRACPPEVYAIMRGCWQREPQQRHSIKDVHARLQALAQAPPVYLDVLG

For `NC(=O)c1ccc(-c2cc(OC3CCCC3)c3c(N)n[nH]c3c2)cc1N1CCN(c2ccccn2)CC1` [Example 75, 4-[3-amino-4-(cyclopentyloxy)-1H-indazol-6-yl]-2-[4-(pyridin-2-yl)piperazin-1-yl]benzamide], the half-inhibitory concentration (IC50) is 2.31 nM. This counts as single-digit nanomolar.
Compound `CC(=O)Nc1ccc(-c2cc(OC3CCOCC3)c3c(C)n[nH]c3c2)cc1N1CCN(C2CCCCC2)CC1` [Example 119, N-{2-(4-cyclohexylpiperazin-1-yl)-4-[3-methyl-4-(tetrahydro-2H-pyran-4-yloxy)-1H-indazol-6-yl]phenyl}acetamide] came in with an IC50 of 31.1 nM.
With `CNC(=O)c1ccc(-c2cc(O[C@H](C)C(F)(F)F)c3c(N)n[nH]c3c2)cc1OCCOc1ccccc1` [Example 106, 4-(3-amino-4-{[(2R)-1,1,1-trifluoropropan-2-yl]oxy}-1H-indazol-6-yl)-N-methyl-2-(2-phenoxyethoxy)benzamide], the midpoint of inhibition, the IC50, lay at 2.67 nM.
For `CC(Oc1cc(-c2ccc(C(N)=O)c(N3CCN(c4ccccn4)CC3)c2)cc2[nH]nc(N)c12)C(F)(F)F` (stereo not drawn) [Example 94, 4-{3-amino-4-[(1,1,1-trifluoropropan-2-yl)oxy]-1H-indazol-6-yl}-2-[4-(pyridin-2-yl)piperazin-1-yl]benzamide] the value was 2.41 nM; for `CCNC(=O)c1ccc(-c2cc(OC3CCCC3)c3cn[nH]c3c2)cc1N1CCN(c2ccccc2)CC1` [Example 120, 4-[4-(cyclopentyloxy)-1H-indazol-6-yl]-N-ethyl-2-(4-phenylpiperazin-1-yl)benzamide], 82.5 nM.
Turning to `CNC(=O)c1ccc(-c2cc(OC3CCOCC3)c3c(C)n[nH]c3c2)cc1N1CCN(C(=O)CC(C)C)CC1` [Example 160, N-methyl-2-[4-(3-methylbutanoyl)piperazin-1-yl]-4-[3-methyl-4-(tetrahydro-2H-pyran-4-yloxy)-1H-indazol-6-yl]benzamide], the IC50 came to 59.3 nM. The IC50 values of the last two compounds are within 1.5-fold of each other.
The figure for `NC(=O)c1ccc(-c2ccc3c(N)n[nH]c3c2)cc1N1CCN(CCN2CCOCC2)CC1` [Example 89, 4-(3-amino-1H-indazol-6-yl)-2-{4-[2-(morpholin-4-yl)ethyl]piperazin-1-yl}benzamide] is 13500 nM; for `CC(Oc1cc(-c2ccc(C(N)=O)c(N3C[C@H]4CN(Cc5ccccc5)C[C@H]4C3)c2)cc2[nH]nc(N)c12)C(F)(F)F` (stereo partly drawn) [Example 99, 4-{3-amino-4-[(1,1,1-trifluoropropan-2-yl)oxy]-1H-indazol-6-yl}-2-[(3aR*,6aS*)-5-benzylhexahydropyrrolo[3,4-c]pyrrol-2(1H)-yl]benzamide] it is 852 nM; for `CC(=O)Nc1ccc(-c2cc(OC3CCOCC3)c3c(C)n[nH]c3c2)cc1N1CCN(Cc2cccnc2)CC1` [Example 148, N-{4-[3-methyl-4-(tetrahydro-2H-pyran-4-yloxy)-1H-indazol-6-yl]-2-[4-(pyridin-3-ylmethyl)piperazin-1-yl]phenyl}acetamide] it is 34.6 nM.
`CCc1n[nH]c2cc(-c3ccc(C(=O)NC)c(N4CCN(C(=O)OC(C)(C)C)CC4)c3)cc(OC3CCOCC3)c12` [Example 158, tert-butyl 4-{5-[3-ethyl-4-(tetrahydro-2H-pyran-4-yloxy)-1H-indazol-6-yl]-2-(methylcarbamoyl)phenyl}piperazine-1-carboxylate]: the IC50 was determined as 317 nM.
For `CNC(=O)c1ccc(-c2cc(OC3CCOCC3)c3c(C)n[nH]c3c2)cc1N1CCN(C(=O)C2CC2)CC1` [Example 124, 2-[4-(cyclopropylcarbonyl)piperazin-1-yl]-N-methyl-4-[3-methyl-4-(tetrahydro-2H-pyran-4-yloxy)-1H-indazol-6-yl]benzamide], the IC50 is 19.2 nM.
For `CC(Oc1cc(-c2ccc(C(N)=O)c(N3CCN(CCC(C)(C)C)CC3)c2)cc2[nH]nc(N)c12)C(F)(F)F` (stereo not drawn) [Example 100, 4-{3-amino-4-[(1,1,1-trifluoropropan-2-yl)oxy]-1H-indazol-6-yl}-2-[4-(3,3-dimethylbutyl)piperazin-1-yl]benzamide], the IC50 came to 4.98 nM.
